Laboratory results from US20070207993A1, “Molybdenum carbonyl complexes for treating rheumatoid arthritis and other inflammatory diseases” (Alfama - Investigacao e Desenvolvimetno De Productos …, priority 2005, published 2007).

Columns and labels:
[1] = CO release in the presence of reactive oxygen species (TBHP, H2O2, KO2); type: physicochemical; conditions: 25° C., dark; for Equivalents of CO2 released, H2O2 / Equivalents of CO released, H2O2: H2O2 100:1, water; for Equivalents of CO2 released, KO2 / Equivalents of CO released, KO2: KO2 100:1, THF; for Equivalents of CO2 released, TBHP / Equivalents of CO released, TBHP: TBHP 100:1, water
Protocol: The studies were done using the same method and apparatus described in Example 7 with the following modifications: RPMI/FBS was replaced by double distilled water in the experiments with H2O2 and TBHP and by tetrahydrofuran (THF) for the experiments with KO2; the temperature was kept at 25° C. The concentration of Compound I.1 was approximately 1 mM and the ration of concentrations of H2O2, TBHP and KO2 relative to Compound I.1 was 100:1. The amount of CO2 generated was also measured in the same experiment to ascertain the concurrent oxidation of coordinated CO. TBHP was added from a 70% aqueous solution and H2O2 from a 30% aqueous solution.

[2] = Solubility in water and RPMI; type: physicochemical
Sprague Dawley rats = assay: Toxicity in vivo, 20-day daily dosing; design: species or system rat; conditions: 80 mg/kg daily for 20 days, in olive oil
Protocol: Compound I.1 was dissolved in olive oil and administered to Sprague Dawley rats at a daily dose of 80 mg/kg for 20 days. At the end of the treatment the rats were anesthetized, blood was collected and organ samples were fixed in formalin for histological analysis.

[3] = CO release in vivo (CO-hemoglobin in blood by oximeter); conditions: Balb/c mice, intraperitoneal, 100, 25 and 6.25 mg/kg, propylene glycol-water; 0, 30, 120 (330) minutes
Protocol: Nine week old Balb/c mice with a body weight of about 20 g were injected by the intraperitoneal route with Compound I.1 dissolved in a propylene glycol-water mixture. Three doses (100, 25 and 6.25 mg/kg) were used. At various times after the administration of the Compound I.1 blood was collected and CO-hemoglobin levels were determined using an oximeter.
Compound I.1 was administered intraperitonally to mice at a concentration of 100 mg/kg using propylene glycol/water ca.˜2:1 as vehicle. The amount of COHb (carboxyhemoglobin) was monitored with an oximeter in blood samples withdrawn at 0, 30, 120 and 330 minutes after administration. The results are shown in FIG. 9 and show a peaked level of CO after 30 minutes followed by a slow decline.
Compound I.1 was encapsulated in methylated β-cyclodextrin, 2,3,6-tri-O-methyl-β-cyclodextrin, known in the art as TRIMEB, by a standard technique. The encapsulated Compound I.1@TRIMEB (“@” means “encapsulated in”) was administered intraperitonally to mice at a concentration of 30 mg/kg using phosphate buffered saline (PBS) as vehicle. The amount of COHb (carboxyhemoglobin) was monitored with an oximeter in blood samples withdrawn after 30, 60, 90 and 120 minutes after administration.

Balb/c mice = assay: Mortality in mice after injection of a lethal dose of LPS; type: in vivo; conditions: LPS 10 mg/kg i.p., four i.p. injections of 20 mg/kg at -60, -30 min, +4 h, +9 h
Protocol: Seventeen eight week old Balb/c mice received one intraperitoneal injection of LPS at a dose of 10 mg/kg at time zero. One group of eight mice received four intraperitoneal injections of Compound I.1, each at a dose of 20 mg/kg, at 60 and 30 minutes before LPS and at 4 hours and 9 hours after LPS. A second group of 9 mice received four intraperitoneal injections of vehicle (carboxymethylcellulose 0.5%, Tween80 0.5%) at 60 and 30 minutes before LPS and at 4 hrs and 9 hrs after LPS. Survival of the mice was monitored for 168 hours.

Wistar rats = assay: Adjuvant arthritis in rats; type: in vivo, rat
Protocol: Adjuvant arthritis was induced in 11 week old, outbred Wistar rats (376-400 g) by a single intradermal injection into the subplanatar area of the right hind paw of 100 microliter of a 10 mg/ml suspension of mycobacterium butyricum in incomplete Freund's Adjuvant. The disease was induced in 3 groups of rats each consisting of 7 animals. […] Groups 2 and 3 received daily applications of methylene chloride (positive control) (500 mg/kg), or Compound I.1 (80 mg/kg), respectively. Both compounds were administered in olive oil by oral gavage. Treatment was initiated at day 10 after disease induction when signs of arthritis began to appear in the injected footpad as well as in the contralateral footpad. […] All animals were evaluated daily by determination of body weight, foot pad volume (performed by a water displacement method using a plethysmometer, Ugo Basile, Comerio, Italy), ankle circumference (using a flexible measuring tape) and arthritic index that is based on levels of erythema and oedema of the entire paws and digits, number of joints involved, spondilosis, lesions on tail, movement capacity and infections (0=normal, 1=swelling and/or redness of injected paw; 4=severe arthritis of the entire injected paw and digits; +2=2 joints are involved; +3=>2 joints are involved; +1=infection of paws; +1=tail lesions; +1=movement incapacity; +1=spondilosis). […]

O=[C][Mo]([Br])([C]=O)([C]=O)([C]=O)[C]=O [Compound I.1]
Equivalents of CO2 released, H2O2 ([1]; 1 h): 0.41 equivalents | Equivalents of CO released, H2O2 ([1]; 1 h): 1.08 equivalents | Equivalents of CO2 released, H2O2 ([1]; 3 h): 0.80 equivalents | Equivalents of CO released, H2O2 ([1]; 3 h): 1.49 equivalents | Equivalents of CO2 released, H2O2 ([1]; 5 h): 0.90 equivalents | Equivalents of CO released, H2O2 ([1]; 5 h): 1.46 equivalents | Equivalents of CO2 released, H2O2 ([1]; 24 h): 0.89 equivalents | Equivalents of CO released, H2O2 ([1]; 24 h): 1.43 equivalents | Equivalents of CO2 released, KO2 ([1]; 1 h): 0.00 equivalents | Equivalents of CO released, KO2 ([1]; 1 h): 1.94 equivalents | Equivalents of CO2 released, KO2 ([1]; 3 h): 0.00 equivalents | Equivalents of CO released, KO2 ([1]; 3 h): 3.22 equivalents | Equivalents of CO2 released, KO2 ([1]; 5 h): 0.00 equivalents | Equivalents of CO released, KO2 ([1]; 5 h): 2.54 equivalents | Equivalents of CO2 released, KO2 ([1]; 24 h): 0.00 equivalents | Equivalents of CO released, KO2 ([1]; 24 h): 2.29 equivalents | Equivalents of CO2 released, TBHP ([1]; 1 h): 0.51 equivalents | Equivalents of CO released, TBHP ([1]; 1 h): 2.51 equivalents | Equivalents of CO2 released, TBHP ([1]; 3 h): 0.95 equivalents | Equivalents of CO released, TBHP ([1]; 3 h): 3.77 equivalents | Equivalents of CO2 released, TBHP ([1]; 5 h): 1.07 equivalents | Equivalents of CO released, TBHP ([1]; 5 h): 3.94 equivalents | Equivalents of CO2 released, TBHP ([1]; 24 h): 1.13 equivalents | Equivalents of CO released, TBHP ([1]; 24 h): 3.93 equivalents | solubility in water and RPMI [2]: low solubility | histologic analysis of liver, kidney, heart, and spleen (Sprague Dawley rats): did not reveal any gross alterations | serum creatinine (Sprague Dawley rats): in the normal range | serum glutamic oxalacetic transaminase (sGOT) (Sprague Dawley rats): in the normal range | serum glutamic pyruvic transaminase (sGPT) (Sprague Dawley rats): in the normal range | serum urea (Sprague Dawley rats): in the normal range | signs of liver or kidney toxicity (Sprague Dawley rats): No signs of liver or kidney toxicity | CO-hemoglobin level time course [3]: increase in CO levels during the first time interval, followed by a slow decline | mice alive at 168 hours following LPS injection (Balb/c mice): three of the eight | paw volume, paw circumference and arthritis index (all measured parameters) versus positive control (Wistar rats; Wistar rats, 80 mg/kg daily oral gavage in olive oil, day 10 to 29, methylene chloride at 500 mg/kg): superior to methylene chloride | effect in control rats with severe arthritis treated from day 20 on (Wistar rats; three rats of the control group, treated for 10 days): signs of improvements
